Assay results published in publication PMC7313430, “Heme-Dependent ER Stress Apoptosis: A Mechanism for the Selective Toxicity of the Dihydroartemisinin, NSC735847, in Colorectal Cancer Cells” (Frontiers in Oncology, 2020).

What was measured:
[1] = tested on: intracellular iron in HT29 cells; experiment: Intracellular iron measurement (QuantiChrom kit); format: cell-based, human; conditions: HT29, 10 μM, 4, 8 and 16 h
Protocol: HT29 cells were plated in 100 mm tissue culture plates for 48 h and then the cells were treated as indicated in the text. The cells were washed twice with PBS and then 100 μl triton lysis buffer (without EDTA) was added. The intracellular iron concentrations were determined using the QuantiChrom iron assay kit (BioAssay Systems; #ab83366) following the manufacturer's instructions. Briefly, iron standards of different concentrations were prepared by diluting the iron standard provided with the kit with distilled water. The diluted standards (50 μL) and sample cell lysates (50 μL) were transferred into a clear flat bottom 96-well-plate. Working reagent was prepared by mixing 20 volumes of reagent A, 1 volume reagent B and 1 volume reagent C provided with the kit. The working reagent (200 μL) was then added to the standard and sample wells. After mixing, the plate was incubated 40 min at room temperature and then the absorbance was measured at 590 nm. The iron concentration in each sample was calculated as described in the kit protocol.

HT29 cells = experiment: MTS cell viability assay, colon cancer cells HT29; format: cell-based, human
Protocol: The human colon cancer cell lines HT29 and HCT116 were cultured in McCoy's 5A medium (Sigma Aldrich, St. Louis, MO) containing 10% heat-inactivated fetal bovine serum (FBS), penicillin (100 units/ml), and streptomycin (100 μg/ml). The non-tumorigenic colon cell line, FHC, was cultured in DMEM: F12 (1:1) medium supplemented with 10% heat inactivated FBS, 25 mM HEPES (Thermo Fisher Scientific Inc., IL), 10 ng/ml cholera toxin (Sigma Aldrich, St. Louis, MO), 0.005 mg/ml insulin (Thermo Fisher Scientific Inc., IL), 0.005 mg/ml, transferrin (Sigma Aldrich, St. Louis, MO), 100 ng/ml hydrocortisone (Sigma Aldrich, St. Louis, MO), 20 ng/mL human recombinant epidermal growth factor (Thermo Fisher Scientific Inc., IL), 100 units/ml penicillin, and 100 μg/ml streptomycin.
Cells were cultured in 96-well-plates for 48 h before treatment. Serum-free media containing different agents was added to the cells at the concentration and time period described in the figure legend. MTS reagent (Promega, Madison, WI) was then added to each well and the absorbance was measured at 495 nm as directed by the manufacturer. In the presence of MTS reagent, the absorbance reading is proportional to the number of viable cells. The half-maximal inhibitory concentration (IC50) of the tested compounds is the concentration that reduces the viability of cells by 50%. IC50 was calculated after 24 h of treatment ([30], [31]) as described previously ([32]–[34]) from dose-response curves (log drug concentration vs. percentage viability from untreated cells) generated by non-linear regression analysis with GraphPad Prism 5 software (GraphPad Software, San Diego, California).

[2] = tested on: subcutaneous or orthotopic non-small cell lung cancer lesions; conditions: athymic nude mice with subcutaneous or orthotopic non-small cell lung cancer lesions; cited from earlier work
[3] = tested on: ferritin H mRNA in HT29 cells; experiment: Ferritin mRNA qRT-PCR; format: cell-based, human; conditions: HT29, 10 μM, 4, 8 and 16 h
Protocol: Total RNA was extracted from HT29 cells by utilizing TRI reagent (Sigma Aldrich, St. Louis, MO, USA) and then it was purified with the Direct-zol RNA MiniPrep Kit (Zymo Research, Irvine, CA, USA). cDNA was synthesized from purified RNA by using the iScript cDNA Synthesis Kit (Bio-Rad laboratories, Hercules, CA, USA). qRT-PCR was performed by using the iTaq Universal SYBR Green Supermix (Bio-Rad laboratories, Hercules, CA, USA) with the BioRad CFX96 thermocycler (Bio-Rad laboratories, Hercules, CA, USA). The specific primer pair sequences were 5′-[…]-3′ and 5′-[…]-3′ for β-actin; and 5′-[…]-3′ and 5′-[…]-3′ for ferritin H (heavy-chain). Cycle threshold values were normalized to the internal beta-actin control. The ratio of fold change was calculated using the Pfaffl method ([37]).

Structure (SMILES): CC1CCC2C(C)C(OCC(COC3OC4OC5(C)CCC6C(C)CCC(C3C)C46OO5)=NO)OC3OC4(C)CCC1C32OO4 (centres unmarked) [compound (3)]
- cellular free iron [1]: time-dependent increase in cellular free iron
- IC50 (HT29 cells; Homo sapiens, HT-29, MTS viability, 24 h treatment): 11 µM
- cell death / survival of HT29 cells (HT29 cells; MTS, 24 h, single agents or combinations): induced death in a concentration-dependent manner
- body weight of tumor-bearing mice [2]: did not cause significant changes in the body weight
- ferritin mRNA expression [3]: upregulated the expression of ferritin mRNA
